From patent US9321747B2, “Acid addition salt of substituted pyridine compound” (DAIICHI SANKYO COMPANY, LIMITED, priority 2012, dated 2016)
Structures can show the parent of a compound that is named as a salt.

Molecular target: recombinant human CETP protein (Homo sapiens (Human), UniProt P11597)
Experiment: Test of CETP inhibition activity (in vitro, buffer-based)
Assay type: biochemical
Conditions: [14C]-cholesteryl ester transfer from reconstituted HDL to acceptor lipoprotein, 37° C., 60 minutes, PBS buffer
Protocol: Test of CETP Inhibition Activity (In Vitro, Buffer-Based)
(1) Preparation of Reconstituted HDL
Cholesterol (1.125 μmol), phosphatidyl choline (4.5 μmol) and [^14C]-labeled cholesteryl ester (2.0 μCi; 40 μl) were taken in a glass test tube and well mixed with a vortex, and dried under a nitrogen gas current so that it formed a thin film. The obtained mixture was dissolved in ethanol (200 μl), which was designated as Solution A. A PBS solution [a mixed solution of Na2HPO4 (30 mM), KH2PO4 (8.8 mM), NaCl (60 mM) and EDTA (pH 7.4; 0.67 mM); 4 ml] was taken in a tube and the reaction solution was vigorously stirred with a vortex under a nitrogen current. The above-described Solution A was gently injected into this mixture with a syringe and the reaction solution was vigorously stirred with a vortex for 5 minutes under a nitrogen current. Sodium cholate (200 mM; 0.38 ml) was added to the obtained mixture and the reaction solution was stirred for 2 minutes. ApoA-I protein (3 mg) was added to the obtained mixture and the reaction solution was stirred for 2 minutes. The obtained mixture was adjusted to 5 ml with the PBS solution and then dialyzed with the PBS solution. The obtained mixture was designated as the reconstituted HDL.
(2) Preparation of Acceptor Lipoprotein
NaBr was added to the plasma of a healthy person and the density of the mixture was adjusted to 1.019, and the mixture was subjected to density gradient centrifugation (40000 rpm, for 16 hours) to remove the fraction having a density of less than 1.019. NaBr was added to the obtained mixture and the density of the solution was adjusted to 1.063, and the solution was subjected to density gradient centrifugation (40000 rpm, 18 hours) to provide the fraction consisting of IDL (intermediate density lipoprotein) and LDL (1.019<density<1.063). The obtained fraction was dialyzed with the PBS solution. The obtained mixture was designated as the acceptor lipoprotein.
(3) Measurement of CETP Inhibition Activity
A recombinant human CETP protein (manufactured by Roar Biomedical Inc.; 4.5 ng), the acceptor lipoprotein described in (2) above (32.5 μg) and 5,5′-dithio-bis-(2-nitrobenzoic acid) (7 mM, 15 μl) were taken in a 96 well plate and the total amount of the mixture was adjusted to 48.5 μl with the PBS solution. The test compound [DMSO solution (concentration: 0.15, 0.5, 1.5, 5, 15, 50, 150 and 500 μM); 1.5 μl] was added to each well and the mixture was incubated in a thermostatic bath at 37° C. for 60 minutes. The reconstituted HDL (50 μl) described in (1) above was added to each well and the mixture was reacted in a thermostatic bath at 37° C. for 60 minutes. The 96 well plate was moved onto ice and a precipitation reagent [a mixed solution of magnesium chloride (60 mM) and 0.1% dextran sulfate[1/1(v/v)]; 15 μl] was added to each well, and then the mixture was allowed to stand on ice for 15 minutes. The reaction solution (80 μl) in each well was moved to a filter plate and centrifuged at 1500 rpm for 1 minute, and the filtrate which passed through the filter was designated as the HDL fraction and the radioactivity thereof was measured with a scintillation counter. The percentage decrease in radioactivity in the case where the test compound was added in comparison with that in case where the test compound was not added was designated as the percentage CETP inhibition. The IC50 value was calculated from the percentage CETP inhibition.

Chain of recombinant human CETP protein (P11597 18-493): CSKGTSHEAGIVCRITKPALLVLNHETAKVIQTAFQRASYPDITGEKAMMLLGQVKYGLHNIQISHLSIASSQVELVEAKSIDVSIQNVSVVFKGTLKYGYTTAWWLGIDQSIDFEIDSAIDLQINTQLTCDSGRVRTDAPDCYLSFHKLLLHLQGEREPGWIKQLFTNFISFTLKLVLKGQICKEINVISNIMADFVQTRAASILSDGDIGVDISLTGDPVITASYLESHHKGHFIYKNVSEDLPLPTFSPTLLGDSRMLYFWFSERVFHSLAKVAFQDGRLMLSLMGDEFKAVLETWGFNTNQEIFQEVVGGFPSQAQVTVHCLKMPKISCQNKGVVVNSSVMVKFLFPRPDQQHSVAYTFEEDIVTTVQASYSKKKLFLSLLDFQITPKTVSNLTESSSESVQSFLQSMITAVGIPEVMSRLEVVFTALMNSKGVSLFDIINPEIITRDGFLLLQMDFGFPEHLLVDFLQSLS

SMILES | IC50 (dihydrobromide) | further results
CC1(C)Cc2nc(C3CCN(c4ncc(OCCCS(C)(=O)=O)cn4)CC3)c([C@@H](F)c3ccc(C(F)(F)F)cc3)c(C3CCC(F)(F)CC3)c2[C@@H](O)C1 [Example 18, (5S)-4-(4,4-Difluorocyclohexyl)-3-{(S)-fluoro[4-(trifluoromethyl)phenyl]methyl}-7,7-dimethyl-2-(1-{5-[3-(methylsulfonyl)propoxy]pyrimidin-2-yl}piperidin-4-yl)-5,6,7,8-tetrahydroquinolin-5-ol dihydrobromide] | 18.9 nM | –
CC1(C)Cc2nc(C3CCN(c4ncc(OCCCS(C)(=O)=O)cn4)CC3)c([C@@H](F)c3ccc(C(F)(F)F)cc3)c(C3CCC(F)(F)CC3)c2[C@@H](O)C1 [Example 19, (5S)-4-(4,4-Difluorocyclohexyl)-3-{(S)-fluoro[4-(trifluoromethyl)phenyl]methyl}-7,7-dimethyl-2-(1-{5-[3-(methylsulfonyl)propoxy]pyrimidin-2-yl}piperidin-4-yl)-5,6,7,8-tetrahydroquinolin-5-ol methanesulfonate] | – | IC50: 22.9 nM
CC1(C)Cc2nc(C3CCN(c4ncc(-c5cccc(C(=O)O)c5)cn4)CC3)c([C@@H](F)c3ccc(C(F)(F)F)cc3)c(C3CCC(F)(F)CC3)c2[C@@H](O)C1 [Example 20, (5S)-2-{1-[5-(3-Carboxyphenyl)pyrimidin-2-yl]piperidin-4-yl}-4-(4,4-difluorocyclohexyl)-3-{(S)-fluoro[4-(trifluoromethyl)phenyl]methyl}-7,7-dimethyl-5,6,7,8-tetrahydroquinolin-5-ol dihydrochloride] | – | IC50 (dihydrochloride): 289 nM
CC1(C)Cc2nc(C3CCN(c4ncc(-c5cccc(C(=O)O)c5)cn4)CC3)c([C@@H](F)c3ccc(C(F)(F)F)cc3)c(C3CCC(F)(F)CC3)c2[C@@H](O)C1 [Example 21, (5S)-2-{1-[5-(3-Carboxyphenyl)pyrimidin-2-yl]piperidin-4-yl}-4-(4,4-difluorocyclohexyl)-3-{(S)-fluoro[4-(trifluoromethyl)phenyl]methyl}-7,7-dimethyl-5,6,7,8-tetrahydroquinolin-5-ol dihydrobromide] | 279 nM | –
